Laboratory results as given in patent publication US9668477B2, “Active compound combinations” (BAYER CROPSCIENCE AG, priority 2012, dated 2017).
Where two headings read alike, the source gives them in different places.

Experiments:
Type in all cases: in vivo
Venturia inaequalis = assay: Venturia test (apples)/preventive; conditions: Table I1, 10 days after inoculation
Method: (§1) Solvent: 24.5 parts by weight of acetone • 24.5 parts by weight of dimethylacetamide Emulsifier: 1 part by weight of alkylaryl polyglycol ether To produce a suitable preparation of active compound, 1 part by weight of active compound is mixed with the stated amounts of solvent and emulsifier, and the concentrate is diluted with water to the desired concentration. To test for preventive activity, young plants are sprayed with the preparation of active compound at the stated rate of application.

Uromyces appendiculatus = assay: Uromyces test (beans)/preventive; conditions: 10 days after inoculation
Method: (§2) Solvent: 24.5 parts by weight of acetone • 24.5 parts by weight of dimethylacetamide
(§3) Emulsifier: 1 part by weight of alkylaryl polyglycol ether
(§4) To produce a suitable preparation of active compound, 1 part by weight of active compound is mixed with the stated amounts of solvent and emulsifier, and the concentrate is diluted with water to the desired concentration.
(§5) To test for preventive activity, young plants are sprayed with the preparation of active compound at the stated rate of application. After the spray coating has dried on, the plants are inoculated with an aqueous spore suspension of the causal agent of bean rust (Uromyces appendiculatus) and then remain for 1 day in an incubation cabinet at approximately 20° C. and a relative atmospheric humidity of 100%.
The plants are then placed in a greenhouse at approximately 21° C. and a relative atmospheric humidity of approximately 90%.
The test is evaluated 10 days after the inoculation. 0% means an efficacy which corresponds to that of the untreated control, while an efficacy of 100% means that no disease is observed.

[1] = test system: Blumeria graminis f.sp. hordei; assay: Blumeria test (barley)/preventive; conditions: Table B1; 160 ppm a.i.; 7 days after inoculation
Method: (§6) Solvent: 49 parts by weight of N,N-dimethylacetamide Emulsifier: 1 part by weight of alkylaryl polyglycol ether To produce a suitable preparation of active compound, 1 part by weight of active compound or active compound combination is mixed with the stated amounts of solvent and emulsifier, and the concentrate is diluted with water to the desired concentration. To test for preventive activity, young plants are sprayed with the preparation of active compound or active compound combination at the stated rate of application. After the spray coating has been dried, the plants are dusted with spores of Blumeria graminis f.sp. hordei.

Pyrenophora teres = assay: Pyrenophora teres-test (barley)/preventive; conditions: Table F1; 160 ppm a.i.; 8 days after inoculation
Method: (§7) Solvent: 49 parts by weight of N,N-dimethylacetamide
as §3
(§8) To produce a suitable preparation of active compound, 1 part by weight of active compound or active compound combination is mixed with the stated amounts of solvent and emulsifier, and the concentrate is diluted with water to the desired concentration.
(§9) To test for preventive activity, young plants are sprayed with the preparation of active compound or active compound combination at the stated rate of application.
After the spray coating has been dried, the plants are sprayed with a spore suspension of Pyrenophora teres. The plants remain for 48 hours in an incubation cabinet at approximately 20° C. and a relative atmospheric humidity of approximately 100%.
(§10) The plants are placed in the greenhouse at a temperature of approximately 20° C. and a relative atmospheric humidity of approximately 80%.
(§11) The test is evaluated 8 days after the inoculation. 0% means an efficacy which corresponds to that of the untreated control, while an efficacy of 100% means that no disease is observed.

Puccinia triticina = assay: Puccinia triticina-test (wheat)/preventive; conditions: Table E1, 8 days after inoculation
Method: as §7, §3, §8, §9
After the spray coating has been dried, the plants are sprayed with a spore suspension of Puccinia triticina. The plants remain for 48 hours in an incubation cabinet at approximately 20° C. and a relative atmospheric humidity of approximately 100%.
as §10, §11

Sphaerotheca fuliginea = assay: Sphaerotheca test (cucumbers)/preventive; conditions: Table G1, 7 days after inoculation
Method: as §1, with “application. After the spray coating has dried on, the plants are inoculated with an aqueous spore suspension of Sphaerotheca fuliginea.” for “application.”

Alternaria solani = assay: Alternaria test (tomatoes)/preventive; conditions: 3 days after inoculation
Method: as §2, §3, §4
as §5, with “Alternaria solani. The plants are” for “the causal agent of bean rust (Uromyces appendiculatus) and”, “placed” for “remain for 1 day”
The test is evaluated 3 days after the inoculation. 0% means an efficacy which corresponds to that of the untreated control while an efficacy of 100% means that no disease is observed.

Phakopsora pachyrhizi = assay: Phakopsora test (soybeans)/preventive; conditions: Phakopsora pachyrhizi, 168 h, 7 days after inoculation, read-out: Efficacy in % found; for pest or weed control at 0.25 ppm: 0.25 ppm a.i.
Leptosphaeria nodorum = Leptosphaeria nodorum test (wheat)/preventive; conditions: Table C1; 160 ppm a.i.; 8 days after inoculation
Method: as §6, with “sprayed” for “dusted”, “a spore suspension” for “spores”, “Leptosphaeria nodorum.” for “Blumeria graminis f.sp. hordei.”

CCN(C)/C=N/c1cc(C)c(Oc2ccccc2)cc1C [(Id)]
Efficacy in % found (Venturia inaequalis; 0.25 ppm a.i.): 0%
Efficacy in % found (Venturia inaequalis; 0.5 ppm a.i.): 0%
Efficacy in % found (Venturia inaequalis; 1 ppm a.i.): 0%
Efficacy in % found (Uromyces appendiculatus; Table H1, 0.1 ppm a.i.): 25%
Efficacy in % found (Uromyces appendiculatus; Table H1, 0.25 ppm a.i.): 60%
Efficacy in % found (Uromyces appendiculatus; Table H2, 0.2 ppm a.i.): 0%
Efficacy in % found (Uromyces appendiculatus; Table H3, 0.125 ppm a.i.): 0%
Efficacy in % found (Uromyces appendiculatus; Table H3, 0.25 ppm a.i.): 0%
Efficacy in % found [1]: 60%
Efficacy in % found (Pyrenophora teres): 13%
Efficacy in % found (Puccinia triticina; 80 ppm a.i.): 70%
Efficacy in % found (Puccinia triticina; 160 ppm a.i.): 80%
Efficacy in % found (Sphaerotheca fuliginea; 0.25 ppm a.i.): 0%
Efficacy in % found (Sphaerotheca fuliginea; 0.5 ppm a.i.): 0%
Efficacy in % found (Sphaerotheca fuliginea; 1.25 ppm a.i.): 10%
Efficacy in % found (Alternaria solani; Table A1, 0.25 ppm a.i.): 0%
Efficacy in % found (Alternaria solani; Table A1, 0.5 ppm a.i.): 24%
Efficacy in % found (Alternaria solani; Table A1, 1 ppm a.i.): 18%
Efficacy in % found (Alternaria solani; Table A2, 0.5 ppm a.i.): 0%
Efficacy in % found (Alternaria solani; Table A2, 1 ppm a.i.): 11%
pest or weed control at 0.25 ppm (Phakopsora pachyrhizi; Table D1): 28%
pest or weed control at 0.5 ppm (Phakopsora pachyrhizi; Table D1, 0.5 ppm a.i.): 40%
pest or weed control at 1 ppm (Phakopsora pachyrhizi; Table D1, 1 ppm a.i.): 70%
pest or weed control at 0.25 ppm (Phakopsora pachyrhizi; Table D2): 45%
Efficacy in % found (Leptosphaeria nodorum): 50%
